# Values joined by “and” are separate entries in the source; they are usually repeats but may differ in a detail not shown here. Identical values can stand only once. Like-named read-outs stand apart in the source and are kept apart here.
# Key:
# [1] = Plasma milrinone levels (HPLC) during inhaled milrinone after CF-LVAD implantation; assay type: in vivo, human; details: for concentration at 0 h / concentration at 1 h / concentration at 4 h / concentration at 8 h / concentration at 12 h / concentration at 24 h: human, plasma, inhaled, 6 mg/h
# Protocol: Blood samples to determine plasma milrinone levels were obtained at baseline, 1, 4, 8, 12 and 24 hours after initiation of inhaled milrinone. Plasma milrinone levels were determined by ultra-violet high liquid chromatography (HPLC) method [14].
# Delivery of inhaled milrinone was initiated five minutes before the first weaning attempt from cardiopulmonary bypass after LVAD implantation in the operating suite. […] Prior to initiation of inhaled milrinone, blood samples were obtained and analyzed for baseline plasma levels of milrinone. Patient arrival in the ICU immediately after LVAD implantation was defined as ‘time zero.’ Further blood samples to determine plasma milrinone levels were obtained at 1, 4, 8, 12 and 24 hours after arrival to the ICU. […] Patients received inhaled milrinone for a maximum of 24 hours or until the patient was extubated (if less than 24 hours).
# [2] = tested on: post-operative CF-LVAD patients; assay: Perioperative hemodynamics (right heart catheterization / indwelling pulmonary artery catheter) with inhaled milrinone; assay type: in vivo, human
# Protocol: (§1) Methods. The present inventors evaluated fixed dose nebulized iMil delivered into a ventilator circuit for 24 hours in 10 post-operative CF-LVAD (HeartMate-II=10) patients. Tolerability (arrhythmias, hypotension and hypersensitivity reaction), efficacy (hemodynamic), pharmacokinetics (plasma milrinone levels) and cost data were collected.
# (§2) Secondary end points were designed to assess the efficacy, cost effectiveness and pharmacokinetic profile of inhaled milrinone therapy. Efficacy endpoints included hospital and intensive care unit (ICU) length of stay, days on inotropes, mortality at 30 days and changes in right ventricular stroke work index (RSVWi) and right heart catheterization and echocardiographic parameters from baseline values. Right heart catheterization was performed during the hospitalization before LVAD implantation and included the following parameters: right atrial pressure (RAP), mean pulmonary artery pressure (mPAP), pulmonary artery systolic pressure (PASP), cardiac index (CI) and cardiac output (CO). Echocardiographic data was collected retrospectively from echocardiograms closest to LVAD implantation date (studies performed >1 month before surgery were not included) and prospectively obtained within 72 hours after LVAD implantation. Echocardiographic parameters included: left ventricular end diastolic volume (LVEDV), left ventricular end diastolic dimension (LVEDd), cardiac output (CO), PASP, qualitative RV function, and tricuspid annular plane systolic excursion (TAPSE).
# Delivery of inhaled milrinone was initiated five minutes before the first weaning attempt from cardiopulmonary bypass after LVAD implantation in the operating suite. Intraoperative transesophageal echocardiography was performed and analyzed by a single cardiac anesthesiologist, certified in the interpretation of intraoperative echocardiography. Prior to initiation of inhaled milrinone, blood samples were obtained and analyzed for baseline plasma levels of milrinone. Patient arrival in the ICU immediately after LVAD implantation was defined as ‘time zero.’ Further blood samples to determine plasma milrinone levels were obtained at 1, 4, 8, 12 and 24 hours after arrival to the ICU. Hemodynamic values from indwelling pulmonary artery catheter and routine vital signs were also obtained at 1, 4, 8, 12 and 24 hour intervals. Patients received inhaled milrinone for a maximum of 24 hours or until the patient was extubated (if less than 24 hours). Final hemodynamic values were obtained 1 hour after extubation or cessation of inhaled milrinone therapy. All patients underwent a transthoracic echocardiogram 48-72 hours after cessation of inhaled milrinone.
# [3] = tested on: post-operative CF-LVAD patients; assay: Tolerability / safety primary end point of inhaled milrinone (arrhythmias, hypotension, hypersensitivity, death); assay type: in vivo; details: for Death while receiving inhaled milrinone therapy: 10 patients
# Protocol: as §1
# The primary end point was safety, which included documentation of 1) new atrial arrhythmias, lasting greater than 30 seconds or resulting in hemodynamic instability (mean arterial pressure (MAP)<60 mmHg or requiring medical intervention) 2) sustained ventricular tachycardia (VT) lasting greater than 30 seconds, not related to an LVAD suction event or any ventricular arrhythmia resulting in hemodynamic instability (sustained hypotension with a MAP <60 mmHg not related to secondary causes such as acute blood loss or tamponade) and 3) hypersensitivity reaction to milrinone leading to systemic hypotension (MAP<60 mmHg or requiring medical intervention), bronchospasm or rash 4) Death by 30 days.
# [4] = tested on: post-operative CF-LVAD patients; assay: Echocardiographic parameters before vs after LVAD implantation with inhaled milrinone; assay type: in vivo, human
# Protocol: Secondary end points were designed to assess the efficacy, cost effectiveness and pharmacokinetic profile of inhaled milrinone therapy. […] Right heart catheterization was performed during the hospitalization before LVAD implantation and included the following parameters: right atrial pressure (RAP), mean pulmonary artery pressure (mPAP), pulmonary artery systolic pressure (PASP), cardiac index (CI) and cardiac output (CO). […] Echocardiographic parameters included: left ventricular end diastolic volume (LVEDV), left ventricular end diastolic dimension (LVEDd), cardiac output (CO), PASP, qualitative RV function, and tricuspid annular plane systolic excursion (TAPSE). Delivery of inhaled milrinone was initiated five minutes before the first weaning attempt from cardiopulmonary bypass after LVAD implantation in the operating suite. Intraoperative transesophageal echocardiography was performed and analyzed by a single cardiac anesthesiologist, certified in the interpretation of intraoperative echocardiography. Prior to initiation of inhaled milrinone, blood samples were obtained and analyzed for baseline plasma levels of milrinone. […] All patients underwent a transthoracic echocardiogram 48-72 hours after cessation of inhaled milrinone.
# [5] = tested on: post-operative CF-LVAD patients; assay: Hospital and ICU length of stay, days on inotropes; assay type: in vivo, human; details: inhaled milrinone group
# Protocol: as §2
# [6] = Characterization of inhaled milrinone: nebulization degradation profile (mass spectrometry); assay type: physicochemical; details: vibrating mesh nebulizer connected to a mechanical ventilator circuit
# Protocol: Inhaled milrinone validation studies were performed in order to characterize inhaled milrinone aerosol particle size, evaluate nebulization degradation profile, and quantify drug delivery using a vibrating mesh nebulizer connected to a mechanical ventilator circuit. […] A pharmaceutical grade impactor was used to determine median aerodynamic particle size and HPLC was used to determine the amount of milrinone collected at the distal end of the experimental endotracheal tube [15]. Based on this analysis, we prepared a solution of milrinone diluted in 0.9% saline to a final concentration of 0.5 mg/ml to be delivered via continuous infusion by an Alaris® infusion pump set at a fixed rate of 12 ml/hr connected to an Areogen Solo (Aeroneb,® Galway, Ireland) vibrating mesh nebulizer and Aeroneb Pro-X nebulizer control unit (Aerogen, Galway, Ireland). The nebulizer was connected to a mechanical ventilator (Servo-I, Maquet Inc. Wayne N.J.) with a dual heated wire ventilator circuit (Teleflex Hudson RCI, Research Triangle Park, N.C.) proximal to the heated humidifier (Teleflex Hudson Neptune, Research Triangle Park, N.C.). Despite continuous nebulization, delivery of the aerosolized drug product occurred in an ‘intermittent-continuous’ fashion based on the mechanical ventilator respiratory rate. All inhaled milrinone product was administered by a licensed respiratory therapist.
# [7] = literature refs [17, 18]; cited from earlier work
# [8] = while on inhaled milrinone therapy, p<0.009
smiles,measurement,setting,value
"Cc1[nH]c(=O)c(C#N)cc1-c1ccncc1 [inhaled milrinone, milrinone]",Mean plasma milrinone levels at baseline,"[1]; baseline, fixed dose nebulized iMil, 10 post-operative CF-LVAD patients",74.2 ± 35.4 ng/mL
same,concentration at 0 h,"[1]; Table 3 mean of patients, 0 hrs, read-out: Plasma milrinone level, Mean, 0 hrs",114 ng/mL
same,concentration at 1 h,"[1]; Table 3 mean of patients, 1 hrs, read-out: Plasma milrinone level, Mean, 1 hrs",133 ng/mL
same,concentration at 4 h,"[1]; Table 3 mean of patients, 4 hrs, read-out: Plasma milrinone level, Mean, 4 hrs",149 ng/mL
same,concentration at 8 h,"[1]; Table 3 mean of patients, 8 hrs, read-out: Plasma milrinone level, Mean, 8 hrs",213 ng/mL
same,concentration at 12 h,"[1]; Table 3 mean of patients, 12 hrs, read-out: Plasma milrinone level, Mean, 12 hrs",176 ng/mL
same,concentration at 24 h,"[1]; Table 3 mean of patients, 24 hrs, read-out: Plasma milrinone level, Mean, 24 hrs",173 ng/mL
same,concentration at 0 h,"[1]; Table 3 median of patients, 0 hrs, read-out: Plasma milrinone level, Median, 0 hrs",75 ng/mL
same,concentration at 1 h,"[1]; Table 3 median of patients, 1 hrs, read-out: Plasma milrinone level, Median, 1 hrs",114 ng/mL
same,concentration at 4 h,"[1]; Table 3 median of patients, 4 hrs, read-out: Plasma milrinone level, Median, 4 hrs",117 ng/mL
same,concentration at 8 h,"[1]; Table 3 median of patients, 8 hrs, read-out: Plasma milrinone level, Median, 8 hrs",227 ng/mL
same,concentration at 12 h,"[1]; Table 3 median of patients, 12 hrs, read-out: Plasma milrinone level, Median, 12 hrs",160 ng/mL
same,concentration at 24 h,"[1]; Table 3 median of patients, 24 hrs, read-out: Plasma milrinone level, Median, 24 hrs",137 ng/mL
same,concentration at 1 h,"[1]; 1 hour, read-out: Mean plasma milrinone levels at 1 hour",111 ± 70.9 ng/mL
same,concentration at 4 h,"[1]; 4 hour, read-out: Mean plasma milrinone levels at 4 hour",136 ± 41.5 ng/mL
same,concentration at 8 h,"[1]; 8 hour, read-out: Mean plasma milrinone levels at 8 hour",205 ± 86.7 ng/mL
same,concentration at 12 h,"[1]; 12 hour, read-out: Mean plasma milrinone levels at 12 hour",177 ± 61.3 ng/mL
same,concentration at 24 h,"[1]; 24 hour, read-out: Mean plasma milrinone levels at 24 hour",188 ± 106 ng/mL
same,"Plasma milrinone level, 0 hrs","[1]; individual patients 1-10, 0 hrs, inhaled milrinone 0.5 mg/ml at 12 ml/hr, prior IV milrinone stopped 6 h (Patient 1) or >12 h before surgery",69.93 ng/mL and 65.54 ng/mL and 87.08 ng/mL and 138.22 ng/mL and 392.92 ng/mL and 20.85 ng/mL and 80.03 ng/mL and 57.67 ng/mL
same,"Plasma milrinone level, 1 hrs","[1]; individual patients 1-10, 1 hrs, continuous inhaled milrinone 0.5 mg/ml at 12 ml/hr",239.86 ng/mL and 115.38 ng/mL and 106.94 ng/mL and 111.96 ng/mL and 12.54 ng/mL and 157.04 ng/mL and 326.72 ng/mL and 81.31 ng/mL and 18.53 ng/mL and 158.4 ng/mL
same,"Plasma milrinone level, 4 hrs","[1]; individual patients 1-10, 4 hrs, continuous inhaled milrinone",113.74 ng/mL and 112.71 ng/mL and 114.96 ng/mL and 92.16 ng/mL and 112.06 ng/mL and 188.04 ng/mL and 267.11 ng/mL and 154.31 ng/mL and 118.34 ng/mL and 216.26 ng/mL
same,"Plasma milrinone level, 8 hrs","[1]; individual patients 1-10, 8 hrs, continuous inhaled milrinone",268.28 ng/mL and 115.66 ng/mL and 134 ng/mL and 273.14 ng/mL and 91.67 ng/mL and 349.39 ng/mL and 284.52 ng/mL and 158.8 ng/mL and 197.89 ng/mL and 255.72 ng/mL
same,"Plasma milrinone level, 12 hrs","[1]; individual patients 1-10, 12 hrs, continuous inhaled milrinone",133.77 ng/mL and 152.27 ng/mL and 248.58 ng/mL and 254.31 ng/mL and 89.91 ng/mL and 167.3 ng/mL and 153.12 ng/mL and 205.26 ng/mL
same,"Plasma milrinone level, 24 hrs","[1]; individual patients 1-10, 24 hrs, continuous inhaled milrinone",117.04 ng/mL and 364.15 ng/mL and 101.94 ng/mL and 100.88 ng/mL and 156.98 ng/mL and 197.73 ng/mL
same,Plasma milrinone levels during inhaled milrinone therapy (within the accepted therapeutic milrinone range),"[1]; inhaled milrinone therapy, statement in words",100 to 300 ng/mL
same,"Right Atrial Pressure, mean, Post milrinone","[2]; 1 hour after cessation of inhaled milrinone, Pre-VAD RHC 13.75",25.75 mmHg
same,"Mean Pulmonary Artery Pressure, mean, Post milrinone","[2]; 1 hour after cessation, Pre-VAD RHC 39.5",27 mmHg
same,"Pulmonary Artery Systolic Pressure, mean, Post milrinone","[2]; 1 hour after cessation, Pre-VAD RHC 56.33",38.75 mmHg
same,"Right Atrial Pressure, mean, ICU arrival","[2]; ICU arrival after LVAD implantation, inhaled milrinone started before weaning from bypass, Pre-VAD RHC 13.75",13.33 mmHg
same,"Mean Pulmonary Artery Pressure, mean, ICU arrival","[2]; ICU arrival, Pre-VAD RHC 39.5",28.5 mmHg
same,"Pulmonary Artery Systolic Pressure, mean, ICU arrival","[2]; ICU arrival, Pre-VAD RHC 56.33",36.00 mmHg
same,"Right Atrial Pressure, Mean on milrinone","[2]; during inhaled milrinone, Pre-VAD RHC 13.75",13.53 mmHg
same,"Mean Pulmonary Artery Pressure, Mean on milrinone","[2]; during inhaled milrinone, Pre-VAD RHC 39.5",25.88 mmHg
same,"Pulmonary Artery Systolic Pressure, Mean on milrinone","[2]; during inhaled milrinone, Pre-VAD RHC 56.33",36.25 mmHg
same,Invasive mean pulmonary artery pressure from baseline to during iMil therapy,[2]; p=0.017,improved
same,"RVSWi, mean, 1 hour after milrinone cessation","[2]; preoperative mean 571, p=0.179",383 mmHg-mL/m^2
same,"RVSWi, median, 1 hour after milrinone cessation","[2]; preoperative median 453, p=0.179",326 mmHg-mL/m^2
same,Death while receiving inhaled milrinone therapy,[3],No deaths occurred
same,Death while receiving inhaled milrinone therapy,[3]; listed as iMil,not observed
same,"Ventricular tachycardia events, number (%)","[3]; human, in vivo",3 (30%)
same,"Non-sustained VT, number of patients/events","[3]; human, in vivo, 24 h",1
same,"Sustained VT, number of patients/events","[3]; human, in vivo, 24 h",2
same,Deaths in the study group 30 days after CF-LVAD implantation,"[3]; institutional 30 day death rate 12% (12/102), p=0.60",0/10
same,Rate of ventricular arrhythmias during inhaled milrinone therapy,"[3]; n=3 of 10, INTERMACS data base 36%, p=0.99",30%
same,Patients requiring veno-arterial ECMO support,"[3]; within hours of LVAD implantation, no absolute cause identified",1
same,Qualitative RV function after LVAD implantation vs pre-LVAD implant,[4]; p=0.347,not significantly different
same,TAPSE after LVAD implantation vs pre-LVAD implant,[4]; p=0.846,not significantly different
same,LVED volume (echocardiography) after LVAD implantation vs pre-LVAD implant,[4]; [8],significant decreases
same,LVIDd (echocardiography) after LVAD implantation vs pre-LVAD implant,[4]; [8],significant decreases
same,PASP (echocardiography) after LVAD implantation vs pre-LVAD implant,[4]; [8],significant decreases
same,Median ICU length of stay,"[5]; institutional 5 days, p=0.49",5 days
same,Median total days on inotrope support,"[5]; institutional 6 days, p=0.08",9 days
same,Median total hospital length of stay,"[5]; institutional 28 days, p=0.26",33 days
same,New drug formation or degradation products after nebulization (mass spectrometry),[6],did not identify new drug formation or degradation products
same,Accepted therapeutic range of plasma milrinone,[7],100 to 300 ng/mL
